Usually pIC50 stands for −log10 of the IC50, conventionally taken in molar units.

This passage reports IC50 results from patent publication US20240239804A1, “FUROINDAZOLE DERIVATIVES AS ANTAGONISTS OR INHIBITORS OF GPR84” (Bayer Aktiengesellschaft, priority 2021, published 2024).

Structures are written as SMILES. pIC50: −log10 of the molar value. Where a name gives a salt, the structure may show the parent alone.

The target in this experiment is T1, human GPR84 receptor (Homo sapiens, UniProt Q9NQS5).
T1 construct: frozen aliquots prepared by acCELLerate; host or cells: CHO-K1
T1 sequence (Q9NQS5 whole entry): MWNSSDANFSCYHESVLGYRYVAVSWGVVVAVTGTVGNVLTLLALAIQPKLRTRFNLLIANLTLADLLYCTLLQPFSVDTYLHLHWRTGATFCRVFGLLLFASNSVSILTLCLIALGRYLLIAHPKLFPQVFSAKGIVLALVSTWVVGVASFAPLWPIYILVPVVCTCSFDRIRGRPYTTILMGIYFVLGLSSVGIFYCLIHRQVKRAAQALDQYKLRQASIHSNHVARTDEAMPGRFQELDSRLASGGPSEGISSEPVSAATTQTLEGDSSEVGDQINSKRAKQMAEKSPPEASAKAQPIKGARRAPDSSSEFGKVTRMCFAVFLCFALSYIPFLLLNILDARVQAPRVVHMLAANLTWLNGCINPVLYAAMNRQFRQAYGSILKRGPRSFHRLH
The experiment is described as follows: cAMP HTRF assay for identification of cellular GPR84 antagonists. Particulars: CHO-K1 cells stably expressing human GPR84; Forskolin plus agonist 6-OAU; cAMP HTRF readout; average or median values. Type of experiment: cell-based. The text has this: cAMP HTRF® Assay for Identification of Cellular GPR84 Antagonists
By using a Homogenous Time-Resolved Fluorescence (HTRF®) based assay (#62AM5PEJ, Cisbio, Condolet, France) the inhibition of the Gi-coupled GPR84 receptor can be detected. CHO-K1 cells stably expressing human GPR84 receptor (purchased from DiscoveRx, now Eurofins) were used and treated with Forskolin (F6886, Sigma, Germany) to stimulate membrane adenylyl cyclases and thereby unspecific cAMP formation. Activation of the Gi-coupled GPR84 by a natural or small molecule agonist (e.g. 6-n-octyl aminouracile, inhouse) results in inhibition of cellular cAMP formation which can be released again by antagonists to this receptor. Detection and quantification of cellular cAMP levels in this HTRF assay is achieved by interaction between a fluorescent cAMP tracer (cAMP-d2) and an Eu-cryptate labelled anti-cAMP antibody. Following excitation at 337 nm this pairing allows for the generation of a fluorescence resonance energy transfer (FRET) between the partners and results in FRET induced emissions at 665 nm and 620 nm, the latter representing background signal by Eu-cryptate labelled anti-cAMP antibody. Maximal signal is obtained in the absence of any cellular cAMP (no competition for the binding of the tracer to the antibody). Given the combination of the Gi coupling properties of GPR84 and the competitive nature of the detection system agonist treatment should result in an increase in the HTRF signal due to lowered cAMP levels. Any signal decrease in the presence of Forskolin, agonist and compound are indicative of antagonist mediated abrogation of GPR84 signalling.
For the assay, frozen aliquots of CHO-K1 cells expressing hGPR84 (prepared by acCELLerate, Hamburg, Germany) were thawed and a cell suspension (1.67E+06 cells/mL) in assay media (Ham's F12 Nutrient Mix, Thermo Fisher Scientific, Waltham, USA; 5% fetal calf serum, Biomol, Hamburg, Germany) containing cAMP-d2 (dilution 1:20, supplied with the kit #62AM5PEJ, Cisbio, Condolet, France) was prepared. After recovery of cells for 20 minutes at 37° C., 3 μL/well cell suspension including cAMP-d2 were added to a pre-dispensed assay plate (Greiner Bio-One, Kremsmuenster, Austria) containing 50 nl/well test compound in 100% DMSO or 100% DMSO as control. This was followed by a 30 minute incubation step at room temperature. The stimulation time was started by addition of 2 μL/well assay media containing 2.5×EC80 agonist 6-OAU and 2.5×EC90 Forskolin (negative control: 2.5×EC90 Forskolin in assay media) and was continued for 30 minutes at room temperature. The reaction was stopped by addition of 3 μL/well lysis buffer containing cAMP Eu-Cryptate antibody (dilution 1:20) (both supplied with the kit #62AM5PEJ, Cisbio, Condolet, France). To enable complete lysis, plates were incubated for 60 minutes at room temperature before measurement in an HTRF reader, e.g. a PHERAstar (BMG Labtech, Ortenberg, Germany).
From the fluorescence emissions at 665 nm (FRET) and at 620 nm (background signal of Eu-cryptate) the ratio (emission at 665 nm divided by emission at 620 nm×10000) was calculated and the data were normalized (reaction without test compound, only 100% DMSO=0% inhibition; all other assay components except agonist=100% inhibition). For dose response testing on the same microtiter plate, compounds were tested at 11 different concentrations in the range of 20 μM to 0.07 nM (20 μM, 5.7 μM, 1.6 μM, 0.47 μM, 0.13 μM, 38 nM, 11 nM, 3.1 nM, 0.89 nM, 0.25 and 0.07 nM; dilution series prepared before the assay at the level of the 100-fold conc. stock solutions by serial 1:3.5 dilutions in 100% DMSO) in duplicate values for each concentration. IC50 values were calculated by 4-parameter fitting using a commercial software package (Genedata Screener, Basel, Switzerland).
Examples were tested in selected biological assays one or more times. […]
In the case of `Cc1ccc(Cn2cc3c(n2)-c2c(oc(C(=O)NC[C@@H]4COCCO4)c2C)CC3)cc1` [Example 2, N-{[(2R)-1,4-dioxan-2-yl]methyl}-8-methyl-2-[(4-methylphenyl)methyl]-4,5-dihydro-2H-furo[2,3-g]indazole-7-carboxamide], the pIC50 is 8.15.
`Cc1ccc(CNC(=O)c2oc3c(c2C)-c2nn(Cc4ccc(Cl)cc4)cc2CC3)cc1` [Example 22, 2-[(4-chlorophenyl)methyl]-8-methyl-N-[(4-methylphenyl)methyl]-4,5-dihydro-2H-furo[2,3-g]indazole-7-carboxamide]: the pIC50 was 6.47.
In the case of `Cc1c(C(=O)NCC2CCCO2)oc2c1-c1nn(Cc3ccc(Cl)cc3)cc1CC2` (single isomer, unassigned) [Example 21-1] it was 6.28.
The result for `Cc1ccccc1Cn1cc2c(n1)-c1c(oc(C(=O)NCc3ccon3)c1C)CC2` [Example 8, 8-methyl-2-[(2-methylphenyl)methyl]-N-[(1,2-oxazol-3-yl)methyl]-4,5-dihydro-2H-furo[2,3-g]indazole-7-carboxamide] reads 6.62.
In the case of `Cc1c(C(=O)NCc2ccn(C)n2)oc2c1-c1nn(Cc3ccc(Cl)cc3)cc1CC2` [Example 37, 2-[(4-chlorophenyl)methyl]-8-methyl-N-[(1-methyl-1H-pyrazol-3-yl)methyl]-4,5-dihydro-2H-furo[2,3-g]indazole-7-carboxamide] it was 6.74; in that of `Cc1ccc(Cn2cc3c(n2)-c2c(oc(C(=O)NCc4ccon4)c2C)CC3)cc1` [Example 3, 8-methyl-2-[(4-methylphenyl)methyl]-N-[(1,2-oxazol-3-yl)methyl]-4,5-dihydro-2H-furo[2,3-g]indazole-7-carboxamide], 6.85.
For the compound `Cc1ccccc1Cn1cc2c(n1)-c1c(oc(C(=O)NCC3CCCN3)c1C)CC2` (racemic) [Example 7-3, 8-methyl-2-[(2-methylphenyl)methyl]-N-{[(2RS)-pyrrolidin-2-yl]methyl}-4,5-dihydro-2H-furo[2,3-g]indazole-7-carboxamide hydrochloride (1:1)], the pIC50 was 5.93.
In the case of `Cc1c(C(=O)NCC2CCCO2)oc2c1-c1nn(Cc3ccc(F)cc3Cl)cc1CC2` (racemic) [Example 92, 2-[(2-chloro-4-fluorophenyl)methyl]-8-methyl-N-[(2RS)-tetrahydrofuran-2-ylmethyl]-4,5-dihydro-2H-furo[2,3-g]indazole-7-carboxamide], the pIC50 was 6.80.
In the case of `Cc1c(C(=O)NCC(C)(C)O)oc2c1-c1nn(Cc3ccc(Cl)cc3)cc1CC2` [Example 60, 2-[(4-chlorophenyl)methyl]-N-(2-hydroxy-2-methylpropyl)-8-methyl-4,5-dihydro-2H-furo[2,3-g]indazole-7-carboxamide] it was 5.25; in that of `Cc1c(C(=O)N(C)Cc2ccn(C)n2)oc2c1-c1nn(Cc3ccc(Cl)cc3)cc1CC2` [Example 73, 2-[(4-chlorophenyl)methyl]-N,8-dimethyl-N-[(1-methyl-1H-pyrazol-3-yl)methyl]-4,5-dihydro-2H-furo[2,3-g]indazole-7-carboxamide], 4.99; in that of `Cc1c(C(=O)NCC2CCCO2)oc2c1-c1nn(Cc3ccc(Cl)cc3)cc1CC2` (racemic) [Example 21, 2-[(4-chlorophenyl)methyl]-8-methyl-N-[(2RS)-tetrahydrofuran-2-ylmethyl]-4,5-dihydro-2H-furo[2,3-g]indazole-7-carboxamide], 7.24.
In the case of `Cc1c(C(=O)N2CCN(S(C)(=O)=O)CC2)oc2c1-c1nn(Cc3ccc(Cl)cc3)cc1CC2` [Example 67, {2-[(4-chlorophenyl)methyl]-8-methyl-4,5-dihydro-2H-furo[2,3-g]indazol-7-yl}[4-(methanesulfonyl)piperazin-1-yl]methanone] it was 5.11; in that of `Cc1c(C(=O)NCc2cnn(C)c2)oc2c1-c1nn(Cc3ccc(Cl)cc3)cc1CC2` [Example 47, 2-[(4-chlorophenyl)methyl]-8-methyl-N-[(1-methyl-1H-pyrazol-4-yl)methyl]-4,5-dihydro-2H-furo[2,3-g]indazole-7-carboxamide], 5.73; in that of `Cc1c(C(=O)N2CC3CC3C2)oc2c1-c1nn(Cc3ccc(Cl)cc3)cc1CC2` (stereo not shown) [Example 68, (3-azabicyclo[3.1.0]hexan-3-yl){2-[(4-chlorophenyl)methyl]-8-methyl-4,5-dihydro-2H-furo[2,3-g]indazol-7-yl}methanone], 5.10.
Regarding `Cc1c(C(=O)NCc2ccon2)oc2c1-c1nn(Cc3ccc(F)cc3Cl)cc1CC2` [Example 94], the pIC50 is 6.55.
In the case of `Cc1c(C(=O)NCc2ccnn2C)oc2c1-c1nn(Cc3ccc(Cl)cc3)cc1CC2` [Example 46, 2-[(4-chlorophenyl)methyl]-8-methyl-N-[(1-methyl-1H-pyrazol-5-yl)methyl]-4,5-dihydro-2H-furo[2,3-g]indazole-7-carboxamide] it was 5.78; in that of `Cc1c(C(=O)N2CCC(C(N)=O)CC2)oc2c1-c1nn(Cc3ccc(Cl)cc3)cc1CC2` [Example 83, 1-{2-[(4-chlorophenyl)methyl]-8-methyl-4,5-dihydro-2H-furo[2,3-g]indazole-7-carbonyl}piperidine-4-carboxamide], 4.79.
In the case of `Cc1c(C(=O)N2CCc3ccccc3C2)oc2c1-c1nn(Cc3ccc(Cl)cc3)cc1CC2` [Example 61, {2-[(4-chlorophenyl)methyl]-8-methyl-4,5-dihydro-2H-furo[2,3-g]indazol-7-yl}(3,4-dihydroisoquinolin-2(1H)-yl)methanone] it was 5.22.
In the case of `Cc1c(C(=O)NCCN2CCN(C)CC2)oc2c1-c1nn(Cc3cccc(Cl)c3)cc1CC2` [Example 17, 2-[(3-chlorophenyl)methyl]-8-methyl-N-[2-(4-methylpiperazin-1-yl)ethyl]-4,5-dihydro-2H-furo[2,3-g]indazole-7-carboxamide] it was 6.49; in that of `Cc1c(C(=O)NCc2ccccn2)oc2c1-c1nn(Cc3ccc(Cl)cc3)cc1CC2` [Example 39, 2-[(4-chlorophenyl)methyl]-8-methyl-N-[(pyridin-2-yl)methyl]-4,5-dihydro-2H-furo[2,3-g]indazole-7-carboxamide], 6.55; in that of `Cc1c(C(=O)NCC2CCCO2)oc2c1-c1nn(Cc3cccc(Cl)c3)cc1CC2` (single isomer, unassigned) [Example 15-2], 6.26.
In the case of `Cc1c(C(=O)NCCN2CCCC2)oc2c1-c1nn(Cc3ccccc3Cl)cc1CC2` [Example 12, 2-[(2-chlorophenyl)methyl]-8-methyl-N-[2-(pyrrolidin-1-yl)ethyl]-4,5-dihydro-2H-furo[2,3-g]indazole-7-carboxamide], the pIC50 is 6.52.
In the case of `Cc1c(C(=O)N(C)Cc2cnn(C)c2)oc2c1-c1nn(Cc3ccc(Cl)cc3)cc1CC2` [Example 76, 2-[(4-chlorophenyl)methyl]-N,8-dimethyl-N-[(1-methyl-1H-pyrazol-4-yl)methyl]-4,5-dihydro-2H-furo[2,3-g]indazole-7-carboxamide] it was 4.89; in that of `Cc1ccccc1Cn1cc2c(n1)-c1c(oc(C(=O)NCC3CCCN3)c1C)CC2` (single isomer, unassigned) [Example 7-2], 6.20.
The result for `Cc1ccccc1Cn1cc2c(n1)-c1c(oc(C(=O)NC[C@@H]3CCCO3)c1C)CC2` [Example 4, 8-methyl-2-[(2-methylphenyl)methyl]-N-[(2S)-tetrahydrofuran-2-ylmethyl]-4,5-dihydro-2H-furo[2,3-g]indazole-7-carboxamide] reads 7.64.
